Where “and” joins values, the source holds several entries; their conditions need not be identical. Equal entries are not always repeated.
Key:
[1] = test system: genetically hypertensive awake rats; experiment: Hypotensive effect on awake rats suffering from genetic hypertension (method of Eaton, modified); type: in vivo, Wistar-Okamoto rats
[2] = test system: awake dogs with renal hypertension; experiment: Hypotensive effect on awake dogs suffering from renal hypertension (Grollman operation); type: in vivo
Excerpt: (2) Determination of the hypotensive effect on awake dogs suffering from renal hypertension

[3] = Oral acute toxicity (LD50) of the individual components, one week observation; conditions: mouse, in vivo
Procedure: Based on the data given in points 1 and 2 above it can be stated that a considerable potentiating synergism appears with respect to the hypotensive effect when applying the compounds of formula (I) in combination with those of formula (V). In the following it was investigated whether this synergism also appears with respect to the toxicity. In the first test series the LD50 values of the individual components were determined on CFLP-mice. The compounds were administered orally, and the animals were kept under observation for one week. The LD50 values of the individual compounds are as follows: […]

[4] = Toxicity (mortality) of combinations: pre-treatment for one hour with 11,473 or 11,121, then pindolol; set-up: species or system CFLP-mice; conditions: mouse, in vivo, po
Procedure: Based on the data given in points 1 and 2 above it can be stated that a considerable potentiating synergism appears with respect to the hypotensive effect when applying the compounds of formula (I) in combination with those of formula (V). In the following it was investigated whether this synergism also appears with respect to the toxicity. In the first test series the LD50 values of the individual components were determined on CFLP-mice. The compounds were administered orally, and the animals were kept under observation for one week. The LD50 values of the individual compounds are as follows:
To determine the toxicity values of the combinations dosages calculated on the basis of the isobole construction principle were applied. The animals were pre-treated for one hour with various dosages of 11,473 or 11,121, and then varying dosages of pindolol were administered.

## CC(C)NCC(O)COc1cccc2[nH]ccc12.Cl (stereo not drawn) [Pindolol, 1-(4-indolyloxy)-3-isopropylamino-2-propanol hydrochloride]
[1]; 0.25 mg/kg p.o., hydrochloride
  Blood pressure after 2 hours: 180.8 mmHg and 181.6 mmHg
  Blood pressure after 5 hours: 164.9 mmHg and 168.8 mmHg
  Blood pressure after 24 hours: 183.4 mmHg and 188.8 mmHg
[1]; 0.25 mg/kg p.o., basal value (before treatment), hydrochloride
  Blood pressure, basal value: 182.2 mmHg and 184.4 mmHg
[1]; 0.5 mg/kg p.o., hydrochloride
  Blood pressure after 2 hours: 161.4 mmHg and 191.2 mmHg and 172.1 mmHg
  Blood pressure after 5 hours: 160.5 mmHg and 188.3 mmHg and 160.8 mmHg
  Blood pressure after 24 hours: 150.5 mmHg and 188.9 mmHg and 188.6 mmHg
[1]; 0.5 mg/kg p.o., basal value, hydrochloride
  Blood pressure, basal value: 165.0 mmHg and 200.0 mmHg and 200.3 mmHg
[1]; 1 mg/kg p.o.
  Blood pressure after 2 hours: 135.0 mmHg
  Blood pressure after 5 hours: 135.0 mmHg
  Blood pressure after 24 hours: 151.1 mmHg
[1]; 1 mg/kg p.o., basal value
  Blood pressure, basal value: 164.4 mmHg
[1]; 5 mg/kg p.o.
  Blood pressure after 2 hours: 154.5 mmHg
  Blood pressure after 5 hours: 124.5 mmHg
  Blood pressure after 24 hours: 161.0 mmHg
[1]; 5 mg/kg p.o., basal value
  Blood pressure, basal value: 172.5 mmHg
[1]; Rattus norvegicus, po, read-out: ED30% (dosage which decreases the blood pressure by 30% related to the value before treatment), p.o., given alone
  ED30: ~5 mg/kg
[1]; p.o., given alone, hydrochloride
  ED30% (dosage which decreases the blood pressure by 30% related to the value before treatment): 5 mg/kg
[2]; 0.1 mg/kg p.o.
  Blood pressure after 1 hour: 133.3 mmHg
  Blood pressure after 2 hours: 133.3 mmHg
  Blood pressure after 3 hours: 153.0 mmHg
  Blood pressure after 4 hours: 156.7 mmHg
  Blood pressure after 5 hours: 160.0 mmHg
  Blood pressure after 24 hours: 153.3 mmHg
  Blood pressure, basal value: 156.7 mmHg
[3]
  LD50 at 168 h: 300 mg/kg
[4]; pindolol alone 60 mg/kg p.o.
  mortality: 0%
[4]; pindolol alone 90 mg/kg p.o.
  mortality: 0%
[4]; pindolol alone 135 mg/kg p.o.
  mortality: 8%
[4]; pindolol alone 200 mg/kg p.o.
  mortality: 16%
[4]; pindolol alone 300 mg/kg p.o.
  mortality: 46%
[4]; pindolol alone 450 mg/kg p.o.
  mortality: 75%

## CC(C)NCC(O)COc1cccc2ccccc12.Cl (stereo not drawn) [Propranolol, 1-(1-Naphthyloxy)-3-isopropylamino-2-propanol hydrochloride]
[1]; 1 mg/kg p.o.
  Blood pressure after 2 hours: 170.0 mmHg
  Blood pressure after 5 hours: 168.7 mmHg
  Blood pressure after 24 hours: 157.5 mmHg
[1]; 1 mg/kg p.o., basal value
  Blood pressure, basal value: 167.5 mmHg
[1]; 5 mg/kg p.o.
  Blood pressure after 2 hours: 178.6 mmHg
  Blood pressure after 5 hours: 175.9 mmHg
  Blood pressure after 24 hours: 181.8 mmHg
[1]; 5 mg/kg p.o., basal value
  Blood pressure, basal value: 186.4 mmHg
[1]; 10 mg/kg p.o.
  Blood pressure after 2 hours: 170.0 mmHg
  Blood pressure after 5 hours: 148.3 mmHg
  Blood pressure after 24 hours: 163.7 mmHg
[1]; 10 mg/kg p.o., basal value
  Blood pressure, basal value: 178.0 mmHg
[1]; Rattus norvegicus, po
  ED15: ~10 mg/kg

## COC(=O)c1ccc(O)c(CON)c1.Cl [11,121, 2-hydroxy-5-carbomethoxy-benzyloxyamine hydrochloride]
[1]; 50 mg/kg p.o.
  Blood pressure after 2 hours: 170.0 mmHg
  Blood pressure after 5 hours: 163.0 mmHg
  Blood pressure after 24 hours: 169.0 mmHg
[1]; 50 mg/kg p.o., basal value
  Blood pressure, basal value: 168.2 mmHg
[2]; 5 mg/kg p.o.
  Blood pressure after 1 hour: 170.0 mmHg
  Blood pressure after 2 hours: 167.5 mmHg
  Blood pressure after 3 hours: 175.0 mmHg
  Blood pressure after 4 hours: 165.0 mmHg
  Blood pressure after 5 hours: 172.5 mmHg
  Blood pressure after 24 hours: 165.0 mmHg
  Blood pressure, basal value: 165.0 mmHg
[3]; p.o., one week observation
  LD50 at 168 h: 2900 mg/kg

## Cl.NOCc1ccc([N+](=O)[O-])c(O)c1 [11,130, 3-hydroxy-4-nitro-benzyloxyamine hydrochloride]
[1]; 20 mg/kg p.o.
  Blood pressure after 2 hours: 183.0 mmHg
  Blood pressure after 5 hours: 176.0 mmHg
  Blood pressure after 24 hours: 172.0 mmHg
[1]; 20 mg/kg p.o., basal value
  Blood pressure, basal value: 174.0 mmHg

## CCOC(=O)CC(C)=NNc1ccc(Cl)nn1 [11,473, N^1-(3-Chloro-6-pyridazinyl)-N^2-(1-carbethoxy-2-propylidene)-hydrazine]
[1]; 10 mg/kg p.o.
  Blood pressure after 2 hours: 194.0 mmHg
  Blood pressure after 5 hours: 197.0 mmHg
  Blood pressure after 24 hours: 198.0 mmHg
[1]; 10 mg/kg p.o., basal value
  Blood pressure, basal value: 195.0 mmHg
[3]; p.o., one week observation
  LD50 at 168 h: 360 mg/kg
